Common to all, as to test: inhibition of tumour cell growth, NCI panel, 48 h
Experiment [1] relates to KM12.
The test system of experiment [2] is SK-MEL-2.
Experiment [3] relates to OVCAR-4.
For experiment [4], the system named is SN12C.
The subject of experiment [5] is NCI-H23.
Experiment [6] deals with OVCAR-3.
The test system of experiment [7] is NCI/ADR-RES.
Experiment [8] has as its system A549.
Experiment [9] has as its system UACC-62.
Experiment [10] concerns RPMI-8226.
Experiment [11] concerns OVCAR-5.
The test system of experiment [12] is A498.
Experiment [13] deals with SW-620.
Experiment [14] has as its system HOP-92.
In experiment [15] the test system is M19-MEL.
The test system of experiment [16] is DMS-273.
Experiment [17] has as its system DMS-114.
For experiment [18], the system named is XF498.
The subject of experiment [19] is SNB-78.
Experiment [20] deals with KM-20L2.

“And” between values parts separate entries of the source, which are not always exact repeats. Identical values can stand only once. Counter-ions that a name gives are not always drawn.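 Protocol summary: plate cells (96-well), add compound at 5 concentrations, incubate 48 h, interpolate endpoints linearly. At the GI50, growth is halved.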 The source made the active and inactive calls. Rule as the data show it: active = GI50 up to about 1.1 µM and inactive = higher. Some results are limits rather than exact numbers.

With `COc1ccc(N2C(=O)C3c4[nH]c5cc(C)ccc5c4C4CCC(C(C)(C)C)CC4C3C2=O)cc1` (stereo not given), the GI50 in experiment [1] was > 10 µM (inactive); in experiment [2], > 10 µM (inactive); in experiment [3], 4.36 µM (inactive); in experiment [4] it was > 10 µM (inactive); in [5] it was > 10 µM (inactive); in experiment [6] it was > 10 µM (inactive). The GI50 is 3.66 µM (inactive) in experiment [7]; > 10 µM (inactive) in experiment [8]; 6.19 µM (inactive) in experiment [9]; > 10 µM (inactive) in experiment [10]; > 10 µM (inactive) in experiment [11]; 5.21 µM (inactive) in experiment [12]. Further, the GI50 in experiment [13] is > 10 µM (inactive).
As for `O=C(O)CN1CCCC(Cc2c[nH]c3ccccc23)C1` (stereo not given), the GI50 in [1], in experiment [2], in experiment [3], in experiment [5], in experiment [6] and in experiment [7] was > 100 µM (inactive) in each case. Moreover, the GI50 in experiment [8], in experiment [9], in experiment [14], in experiment [11] and in experiment [13] was > 100 µM (inactive) each time.
In the case of `CCOC(=O)CNC(=O)N(CC)C12CC3CC(CC(C3)C1)C2`, the GI50 in [1] was 125 µM (inactive); in experiment [15], 153 µM (inactive); in [2], 103 µM (inactive); in experiment [3], 188 µM (inactive); in experiment [4], 147 µM (inactive); in [16], 132 µM (inactive). For the same molecule, the GI50 was 159 µM (inactive) in experiment [5]; 114 µM (inactive) in experiment [6]; 151 µM (inactive) in experiment [7]; 107 µM (inactive) in experiment [17]; 125 µM (inactive) in [18]; 166 µM (inactive) in experiment [8]. The GI50 in [19] was 166 µM (inactive); in experiment [9] it was 97.5 µM (inactive); in experiment [14], 60.1 µM (inactive); in [10] it was 115 µM (inactive); in [20], 117 µM (inactive); in experiment [11], 161 µM (inactive). Besides, the GI50 in [12] is 115 µM (inactive); in experiment [13] it was 145 µM (inactive).
Consider `NC(=S)N/N=C/c1ccc(OC(=O)COc2ccccc2Cl)cn1`, for which the GI50 in [1] was 75.7 µM (inactive); in experiment [15], 25.9 µM (inactive); in experiment [2], 42.3 µM (inactive); in experiment [3], 32.4 µM (inactive); in experiment [4], 30.5 µM (inactive); in experiment [16] it was 21 µM (inactive). Further, the GI50 is 12.9 µM (inactive) in experiment [5]; 23.2 µM (inactive) in experiment [6]; 15.4 µM (inactive) in experiment [7]; 40 µM (inactive) in experiment [18]; 53.6 µM (inactive) in [8]; > 80.9 µM (inactive) in [19]. Also, the GI50 is 14.6 µM (inactive) in [9]; 12.9 µM (inactive) in [14]; 46.3 µM (inactive) in experiment [10]; 40 µM (inactive) in experiment [20]; 44.4 µM (inactive) in experiment [11]; > 72.8 µM (inactive) in experiment [12]. In addition, the GI50 in [13] is 31 µM (inactive).
`O=C(O)c1cccc2cccc(-c3c4ccc(=O)cc-4oc4cc(O)ccc34)c12`: the GI50 in [1] is > 100 µM (inactive); in experiment [2], > 100 µM (inactive); in experiment [3], > 100 µM (inactive); in [4], > 100 µM (inactive); in experiment [5], > 100 µM (inactive); in experiment [6], 21.3 µM (inactive). Further, the GI50 in experiment [7] is > 100 µM (inactive); in experiment [8], > 100 µM (inactive); in experiment [9], > 100 µM (inactive); in [10], 32.6 µM (inactive); in [11], > 100 µM (inactive); in experiment [12], > 100 µM (inactive). Besides, the GI50 in [13] is 49.7 µM (inactive).
Consider `O=C1C[C@H](c2ccccc2)C2(C(=O)c3ccccc3C2=O)[C@@H](c2ccccc2)C1`, for which the GI50 in experiment [1] is > 10 µM (inactive); in [2], 12.8 µM (inactive); in experiment [3] it was 14.4 µM (inactive); in experiment [4], 24.2 µM (inactive); in experiment [5] it was 32.5 µM (inactive); in [6], 26.9 µM (inactive). The GI50 in experiment [7] was 23.2 µM (inactive); in experiment [9], 11.8 µM (inactive); in [14], 13.6 µM (inactive); in experiment [10], > 100 µM (inactive); in experiment [11] it was 42.2 µM (inactive); in experiment [12], 7.64 µM (inactive).
Regarding `CC1CC2C3CC(F)C4=CC(=O)C=CC4(C)C3(F)C(O)CC2(C)C1(O)C(=O)COC(=O)C(C)(C)C` (stereo not given), the GI50 in experiment [1] is > 100 µM (inactive); in [15], > 100 µM (inactive); in experiment [2] it was > 100 µM (inactive); in [3], 27.4 µM (inactive); in experiment [16] it was > 100 µM (inactive); in experiment [5], > 100 µM (inactive). The GI50 was > 100 µM (inactive) in experiment [6]; > 100 µM (inactive) in experiment [17]; > 100 µM (inactive) in experiment [18]; 54.6 µM (inactive) in experiment [8]; 27.5 µM (inactive) in [19]; > 100 µM (inactive) in [9]. The GI50 in experiment [14] is > 100 µM (inactive); in experiment [10], 44.4 µM (inactive); in [20], > 100 µM (inactive); in [11], > 100 µM (inactive); in [13] it was > 100 µM (inactive).
As to `O=C1c2ccccc2C(=O)c2c1ccc1c2N=C(c2ccc(F)cc2)CC(c2ccc(Cl)c(Cl)c2)N1` (stereo not given), the GI50 in [1] was 6 µM (inactive); in experiment [15] it was 17.2 µM (inactive); in [2], 14 µM (inactive); in [3], 19 µM (inactive); in experiment [4], 17.3 µM (inactive); in [5] it was 16.6 µM (inactive). The GI50 in [17] was 10.1 µM (inactive); in experiment [8], 18.4 µM (inactive); in experiment [19], 19.2 µM (inactive); in experiment [9], 12.1 µM (inactive); in experiment [14], 22.7 µM (inactive); in experiment [10] it was 3.15 µM (inactive). Moreover, the GI50 is 15.7 µM (inactive) in experiment [20], 14.7 µM (inactive) in experiment [11], 19.5 µM (inactive) in [12] and 6.11 µM (inactive) in experiment [13].
Turning to `NC(=O)Nc1cc(O)ccc1/N=N/c1ccc(S(=O)(=O)Nc2ccccn2)cc1`, the GI50 in [1], in experiment [15], in experiment [2], in experiment [3], in experiment [4] and in experiment [16] was > 100 µM (inactive) each time. The GI50 in experiment [5], in [6], in [17], in experiment [18], in [8] and in [19] was > 100 µM (inactive) each time. In addition, the GI50 in experiment [9], in [14], in experiment [10], in [20], in experiment [11] and in experiment [12] was > 100 µM (inactive) throughout. Further, in experiment [13], the GI50 was > 100 µM (inactive).
In the case of `CCC1C[N+]23CCc4c([nH]c5ccccc45)C2CC1CC3` (stereo not given), the GI50 in [1] is 64.7 µM (inactive); in experiment [15], 52.5 µM (inactive); in [2], > 100 µM (inactive); in experiment [3], 81.5 µM (inactive); in [4], 76.4 µM (inactive); in [16] it was 55.5 µM (inactive). In addition, the GI50 is 69.2 µM (inactive) in experiment [5]; 55.5 µM (inactive) in experiment [6]; 53.5 µM (inactive) in experiment [17]; 42.9 µM (inactive) in experiment [18]; > 100 µM (inactive) in experiment [9]; 82.6 µM (inactive) in experiment [14]. In addition, the GI50 was 38.8 µM (inactive) in experiment [10], 97.1 µM (inactive) in experiment [20], > 100 µM (inactive) in [11] and > 100 µM (inactive) in experiment [13].
`COC(=O)C1=CC[C@@H]2C(C(=O)O)=CO[C@@H](OC3OC(CO)C(O)C(O)C3O)[C@H]12` (stereo not given in full): the GI50 in experiment [1], in experiment [15], in experiment [2], in experiment [3], in experiment [4] and in experiment [16] was > 300 µM (inactive) throughout. Further, the GI50 was > 300 µM (inactive) in [5]; > 300 µM (inactive) in experiment [6]; > 300 µM (inactive) in experiment [7]; > 300 µM (inactive) in experiment [17]; > 228 µM (inactive) in experiment [18]; > 300 µM (inactive) in [8]. The GI50 in [19] was > 142 µM (inactive); in [9], > 300 µM (inactive); in experiment [14] it was > 110 µM (inactive); in [10] it was > 300 µM (inactive); in [20], > 300 µM (inactive); in experiment [11], > 300 µM (inactive). Moreover, the GI50 in [12] was > 30 µM (inactive); in experiment [13], > 300 µM (inactive).
As for `Nc1ccc2cc3ccc(N)cc3nc2c1` [PROFLAVINE SULFATE], the GI50 in experiment [15] is 1.79 µM (inactive); in [4] it was 843 nM (active) and 1.04 µM (active); in experiment [16] it was 0.839 µM (active); in experiment [6], 2.77 µM (inactive) and 1.51 µM (inactive); in experiment [7] it was 1.58 µM (inactive); in [17], 1.21 µM (inactive). For the same molecule, the GI50 in experiment [18] is 1.53 µM (inactive); in experiment [19] it was 1.12 µM (active); in experiment [9] it was 1.56 µM (inactive) and 1.6 µM (inactive); in experiment [14], 1.45 µM (inactive) and 2.49 µM (inactive); in experiment [10] it was 1.58 µM (inactive) and 1.43 µM (inactive); in experiment [20] it was 0.767 µM (active). Also, the GI50 in experiment [11] was 3.05 µM (inactive); in [13] it was 494 nM (active) and 397 nM (active).

(Values after ChEMBL document CHEMBL1201862, “PubChem BioAssay data set” (2004).)
